Experimental data reported in patent publication US20040106838A1, “Use of ionic liquids to separate diolefins” (NOVA Chemicals (International) S.A., priority 2002, published 2004).
Like-named read-outs stand apart in the source and are kept apart here. Each block holds one compound with its values, some of them ahead of it.

Experiments:
[1] = C5 hydrocarbon solubility in bmim+ BF4− ionic liquid
Experimental: The testing apparatus consisted of a flat-bottomed florence flask with a graduated neck. The flask was charged with 75 mL of bmim^+ BF4^−, the level being recorded. A known quantity of a C5 hydrocarbon was then added to the flask and the flask was sealed. The overall liquid level and the location of the liquid-liquid interfacial meniscus were recorded. The mixture was then agitated to contact the two liquids and the two phases were allowed to separate. The locations of all meniscuses were then recorded. Agitation and phase separation was then repeated until the liquid levels remained unchanged. The volume change of the hydrocarbon phase corresponds to the quantity of hydrocarbon dissolved in the ionic liquid. The testing was conducted at ambient temperature.

[2] = Liquid-liquid extraction of butadiene from mixed C4 by bmim+ BF4− ionic liquid; type: physicochemical; details: room temperature
Description: The testing apparatus consists of three sample cylinders (150 cc, 10 cc, and 50 cc) connected by ⅜-inch tubing (in the order listed) with valves allowing for isolation of each cylinder. A gas syringe is used to take C4 samples for GC analysis. Various mixed C4S were used which contained varying quantities of 1,3-butadiene (ranging from 15-85 weight %). The composition range of the non-butadiene fraction of the standards was (in weight %) n-butane 29-33%, 1-butene 20-33%, isobutene 0-36%, trans-2-butene 7-17%, and cis-2-butene 5-17%.
To measure C4 extraction, 40 mL of bmim^+ BF4^− absorbent is loaded into the 150 cc cylinder and the 10 cc and 150 cc cylinders are then evacuated. The 10 cc cylinder is then isolated and charged with mixed C4 liquid. This liquid is then added to the 150 cc cylinder. The 10 cc cylinder is then isolated and a second 10 cc is then added to the and subsequently added to the 150 cc cylinder and the 150 cc cylinder is isolated. The apparatus is then agitated to maximize contact between the C4 and ionic liquid phases within the 150 cc cylinder. Following agitation, the liquid is allowed to sit 12 hours to allow the two liquid phases to separate.
To determine the level and composition of C4 in the ionic liquid, a 10 cc sample of ionic liquid from the 150 cc cylinder is charged into the 10 cc cylinder. The 150 cc cylinder is then isolated and the 10 cc ionic liquid sample is charged to the 50 cc cylinder, which is then isolated. The 50 cc cylinder is then heated and the gas syringe is used to collect C4 gas evolving from the ionic liquid. The collected gas is analyzed by GC.
These pseudo-equilibrium extraction experiments conducted for different butadiene concentrations yielded enhanced concentrations of butadiene in the C4 extracted by the ionic liquid.

[3] = in 1-butyl-3-methylimidazolium tetrafluoroborate (bmim+ BF4−), ambient temperature
[4] = solubility in bmim+ BF4−, ambient temperature

SMILES: CC=C(C)C [2-Methyl-2-Butene, 2-methyl-2-butene]
Solubility (mol C5/L Ionic Liquid) [1, 3]: 0.360 mol C5/L Ionic Liquid
Selectivity Over Isopentane [1, 4]: 10.6

SMILES: C=CC=C [Butadiene, 1,3-butadiene]
Butadiene Concentration in Extracted C4 (wt %) ([2]; Butadiene Concentration in Feed 15 wt %): 37.6 wt %
Butadiene Concentration in Extracted C4 (wt %) ([2]; Butadiene Concentration in Feed 30 wt %): 43.3 wt %
Butadiene Concentration in Extracted C4 (wt %) ([2]; Butadiene Concentration in Feed 50 wt %): 74.1 wt %
Butadiene Concentration in Extracted C4 (wt %) ([2]; Butadiene Concentration in Feed 70 wt %): 82.0 wt %
Butadiene Concentration in Extracted C4 (wt %) ([2]; Butadiene Concentration in Feed 85 wt %): 91.8 wt %

Solubility (mol C5/L Ionic Liquid) [1]: 0.034 mol C5/L Ionic Liquid
SMILES: CCC(C)C [Isopentane, isopentane]

SMILES: C=CC(=C)C [Isoprene, isoprene]
Solubility (mol C5/L Ionic Liquid) [1, 3]: 0.611 mol C5/L Ionic Liquid
Selectivity Over 2-Methyl-2-Butene [1, 4]: 1.7
Selectivity Over Isopentane [1, 4]: 18.0
